For one test, the system named is patient-derived GSCs. Nature of the test: MTT cell viability, summary for patient-derived GSCs. The class given is cell-based. The settings on record: Homo sapiens, 72 h, summary statement. The method, then:
MTT assay was used to study cell viability. For that, cells were seeded at a density of 1.5 × 10^3 cells/well in 96-well plates, incubated overnight and then treated with increasing concentrations of DDI199. After 72 h of treatment, MTT absorbance was measured at 570 nm. GraphPad Prism software was used to analyze results and calculate IC50 values.

The next test concerns U87-MG tumors. Put plainly: Immunohistochemistry of subcutaneous tumors. The format is in vivo, athymic nude-Foxn1nu mice. The method, then:
Subcutaneous tumors were extracted, fixed with 4% formaldehyde for 48 h and embedded in paraffin. Tumor sections were obtained and stainings for acetyl H3 (9649, Cell Signaling), acetylated α-tubulin (ab179484, abcam), PCNA (Ab18197, abcam) and Cleaved Caspase 3 (AF835, R&D Systems) were performed. ZEISS Axioscan 7 slide scanner was used to capture images of the stainings and analyses were done using Qupath.

In test [1] the test system is U87-MG cells. Nature of the test: Washout experiment after treatment. The format is in vivo, athymic nude-Foxn1nu mice. The method, then: (§1) For tumor growth experiments, 5 × 10^5 U87-MG cells were subcutaneously injected into two bottom flanks of athymic nude-Foxn1^nu mice, and once tumors reached a size of 25-50 mm^3, mice were sorted into groups taking into account gender and tumor size. Afterwards, mice were intratumorally treated with vehicle, SAHA 100 µM or DDI199 100 µM following a schedule of 5 days on and 2 days off. In combined treatment, mice were treated intraperitoneally with 0.5 mg/Kg of TMZ for 5 days and intratumorally following a schedule of 5 days on and 2 days off with vehicle, SAHA 100 µM or DDI199 100 µM. After 4 weeks of treatment, some mice were kept for washout experiment, while the rest were sacrificed and tumors were extracted for immunohistochemistry and to disaggregate for reinjection and oncosphere formation studies. For reinjection assays, 1.5 × 10^5 cells were subcutaneously injected and tumor size was periodically measured. Once tumors reached end-point criteria, they were extracted for immunohistochemical analysis. An external caliper was used for tumor size measurement and the tumor volume was estimated using the formula V = L · W^2 · 0.5 (where L is tumor length and W is the tumor width).

The test system of test [2] is U87-MG cells. Put plainly: Subcutaneous U87-MG tumor growth, combined treatment with TMZ. The format is in vivo, athymic nude-Foxn1nu mice. As for the experimental part:
as §1

[3] abbreviates: TMZ 0.5 mg/kg ip + DDI199 100 µM intratumoral.

By IC50 is commonly meant the concentration that inhibits the measured activity by half. Low values mean inhibition by little substance, high ones a need for much substance.

The compound `C#CCN(Cc1cc2cc(OCCCN3CCCCC3)ccc2n1S(=O)(=O)c1ccccc1)C(=O)CCCCCCC(=O)NO` [DDI199] had an IC50 in the test on patient-derived GSCs of 5 to 13 µM. In addition, the “acetyl H3 immunohistochemical staining” value with U87-MG tumors (tumors at day 34, 100 µM intratumoral) was 83%. Besides, in the test on U87-MG tumors (tumors at day 34, control 0.25), the “acetyl α-tubulin immunohistochemical staining” value is listed as 0.32. In addition, the “Cleaved Caspase 3 positive cells” value with U87-MG tumors (tumors at day 34, control 0.7%) is 1.5%. This compound displayed a PCNA positive cells with U87-MG tumors (tumors at day 34, control 70%) of 64%. The “Survival in washout experiment, combined with TMZ” value with U87-MG cells [1] (TMZ + DDI199 versus control, TMZ alone and TMZ plus SAHA) was “extended survival”. Moreover, in the test with U87-MG cells [1] (after 4 weeks treatment, controls 10 days), the “Time to end-point volume after washout” value is recorded as 20 days. In addition, the “Survival in washout experiment” value with U87-MG cells [1] (compared to controls and SAHA (p = 0.05)) is “significantly longer survival”. Moreover, the “Mean tumor volume, combined with TMZ” value with U87-MG cells [2] (TMZ 0.5 mg/kg ip 5 days + 100 µM intratumoral, end-point, controls 600 mm^3) stood at 115 mm^3. In the test with U87-MG cells [2] (setting [3]), the “Reduction in final tumor volume versus TMZ + SAHA, combined with TMZ” value is approximately 70%; the “Reduction in final tumor volume versus controls, combined with TMZ” value is 80%; the “Reduction in tumor volume versus TMZ alone, combined with TMZ” value amounted to 70%; the “Reduction in tumor weight versus TMZ + SAHA, combined with TMZ” value amounted to 47%. For the same compound, in the test with U87-MG cells [2] (setting [3]), the “Reduction in tumor weight versus TMZ alone, combined with TMZ” value came to 65% and the “Reduction in tumor weight versus controls, combined with TMZ” value is listed as 65%.
